Data taken from publication PMC7419507, “In vitro Cas9-assisted editing of modular polyketide synthase genes to produce desired natural product derivatives” (Nature Communications, 2020).
“And” between values parts separate entries of the source, which are not always exact repeats. Equal entries are not always repeated.

Columns and labels:
[1] = Cytotoxicity assay (CellTiter-Glo, 72 h), SKOV-3; assay type: cell-based, human; conditions: human
In short: (§1)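 1000 cells/well; 4 h settle, then 2-fold serial dilutions (0.5% DMSO final), 72 h, 37 °C/5% CO2. Read-out: CellTiter-Glo luminescence. Media: RPMI1640 + 10% FBS (Jurkat, MESO-1; Jurkat also Glutamax), DMEM + 10% FBS (SKOV-3).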

[2] = system: human ovarian adenocarcinoma SKOV-3 cells; test: Cytotoxicity assay (CellTiter-Glo, 72 h), SKOV-3; assay type: cell-based; conditions: raw replicate data
In short: as §1

[3] = Cytotoxicity assay (CellTiter-Glo, 72 h), MESO-1; assay type: cell-based; conditions: human
In short: as §1

Compound: COC1CC2CCC(C)C(O)(O2)C(=O)C(=O)N2CCCCC2C(=O)OC(C(C)CC2CCC(O)C(OC)C2)CCC(C)C=C(C)C(O)C(OC)C(=O)C(C)CC(C)C=CC=CC=C1C (stereo not shown) [Compound 16, 32-desketorapamycin]
- viability at 72 h ([1]; SKOV-3 cells (ovarian adenocarcinoma), SKOV-3 cells, 72 h, read-out: Plateau level of cell viability in the dose-response curve): ~60%
- viability at 72 h, 9.53674e-05 uM ([1]; SKOV-3 cells (ovarian adenocarcinoma), conc 9.53674e-5 uM, raw replicate data, read-out: SKOV3 viability (%)): 102%
- viability at 72 h, 0.000190735 uM ([1]; SKOV-3 cells (ovarian adenocarcinoma), conc 0.000190735 uM, raw replicate data, read-out: SKOV3 viability (%)): 96.2%
- viability at 72 h, 0.00038147 uM ([1]; SKOV-3 cells (ovarian adenocarcinoma), conc 0.00038147 uM, raw replicate data, read-out: SKOV3 viability (%)): 97.4%
- viability at 72 h, 0.000762939 uM ([1]; SKOV-3 cells (ovarian adenocarcinoma), conc 0.000762939 uM, raw replicate data, read-out: SKOV3 viability (%)): 84.9%
- viability at 72 h, 0.00152588 uM ([1]; SKOV-3 cells (ovarian adenocarcinoma), conc 0.00152588 uM, raw replicate data, read-out: SKOV3 viability (%)): 77.3%
- viability at 72 h, 0.00305176 uM ([1]; SKOV-3 cells (ovarian adenocarcinoma), conc 0.00305176 uM, raw replicate data, read-out: SKOV3 viability (%)): 68.9%
- viability at 72 h, 0.00610352 uM ([1]; SKOV-3 cells (ovarian adenocarcinoma), conc 0.00610352 uM, raw replicate data, read-out: SKOV3 viability (%)): 59%
- viability at 72 h, 0.012207 uM ([1]; SKOV-3 cells (ovarian adenocarcinoma), conc 0.012207 uM, raw replicate data, read-out: SKOV3 viability (%)): 61.7%
- viability at 72 h, 0.0244141 uM ([1]; SKOV-3 cells (ovarian adenocarcinoma), conc 0.0244141 uM, raw replicate data, read-out: SKOV3 viability (%)): 60%
- viability at 72 h, 0.0488281 uM ([1]; SKOV-3 cells (ovarian adenocarcinoma), conc 0.0488281 uM, raw replicate data, read-out: SKOV3 viability (%)): 59.3%
- viability at 72 h, 0.0976562 uM ([1]; SKOV-3 cells (ovarian adenocarcinoma), conc 0.0976562 uM, raw replicate data, read-out: SKOV3 viability (%)): 58.2%
- viability at 72 h, 0.195312 uM ([1]; SKOV-3 cells (ovarian adenocarcinoma), conc 0.195312 uM, raw replicate data, read-out: SKOV3 viability (%)): 56.3%
- viability at 72 h, 0.390625 uM ([1]; SKOV-3 cells (ovarian adenocarcinoma), conc 0.390625 uM, raw replicate data, read-out: SKOV3 viability (%)): 55.6%
- viability at 72 h, 12.5 uM ([1]; SKOV-3 cells (ovarian adenocarcinoma), conc 12.5 uM, raw replicate data, read-out: SKOV3 viability (%)): 51.2%
- viability at 72 h, 25 uM ([1]; SKOV-3 cells (ovarian adenocarcinoma), conc 25 uM, raw replicate data, read-out: SKOV3 viability (%)): 45.3%
- viability at 72 h, 50 uM ([1]; SKOV-3 cells (ovarian adenocarcinoma), conc 50 uM, raw replicate data, read-out: SKOV3 viability (%)): 39.9%
- viability at 72 h, 0.78125 uM ([1]; SKOV-3 ovarian adenocarcinoma cells, conc 0.78125 uM, raw replicate data, read-out: SKOV3 viability (%)): 57.3%
- viability at 72 h, 1.5625 uM ([1]; SKOV-3 ovarian adenocarcinoma cells, conc 1.5625 uM, raw replicate data, read-out: SKOV3 viability (%)): 55%
- viability at 72 h, 3.125 uM ([1]; SKOV-3 ovarian adenocarcinoma cells, conc 3.125 uM, raw replicate data, read-out: SKOV3 viability (%)): 57.8%
- viability at 72 h, 6.25 uM ([1]; SKOV-3 ovarian adenocarcinoma cells, conc 6.25 uM, raw replicate data, read-out: SKOV3 viability (%)): 57%
- SKOV3 viability (%) ([2]; conc 9.53674e-5 uM): 103.5% and 99.3%
- SKOV3 viability (%) ([2]; conc 0.000190735 uM): 92.3% and 95.8%
- SKOV3 viability (%) ([2]; conc 0.00038147 uM): 95.4% and 93.0%
- SKOV3 viability (%) ([2]; conc 0.000762939 uM): 86.5% and 80.1%
- SKOV3 viability (%) ([2]; conc 0.00152588 uM): 73.2% and 83.0%
- SKOV3 viability (%) ([2]; conc 0.00305176 uM): 64.2% and 71.1%
- SKOV3 viability (%) ([2]; conc 0.00610352 uM): 65.5% and 65.6%
- SKOV3 viability (%) ([2]; conc 0.012207 uM): 60.5% and 55.5%
- SKOV3 viability (%) ([2]; conc 0.0244141 uM): 61.8% and 57.1%
- SKOV3 viability (%) ([2]; conc 0.0488281 uM): 55.9% and 56.4%
- SKOV3 viability (%) ([2]; conc 0.0976562 uM): 56.0% and 58.1%
- SKOV3 viability (%) ([2]; conc 0.195312 uM): 52.7% and 56.6%
- SKOV3 viability (%) ([2]; conc 0.390625 uM): 55.9% and 59.7%
- SKOV3 viability (%) ([2]; conc 0.78125 uM): 59.7% and 56.2%
- SKOV3 viability (%) ([2]; conc 1.5625 uM): 58.0% and 59.2%
- SKOV3 viability (%) ([2]; conc 3.125 uM): 56.1% and 56.8%
- SKOV3 viability (%) ([2]; conc 12.5 uM): 53.9% and 55.3%
- SKOV3 viability (%) ([2]; conc 25 uM): 51.8% and 53.0%
- SKOV3 viability (%) ([2]; conc 50 uM): 34.7% and 38.6%
- viability at 72 h ([3]; MESO-1 cells (malignant pleural mesothelioma), MESO-1 cells, 72 h, read-out: Plateau level of cell viability in the dose-response curve): ~75%
- viability at 72 h, 9.53674e-05 uM ([3]; MESO-1 malignant pleural mesothelioma cells, conc 9.53674e-5 uM, raw replicate data, read-out: MESO1 viability (%)): 102%
- viability at 72 h, 0.000190735 uM ([3]; MESO-1 malignant pleural mesothelioma cells, conc 0.000190735 uM, raw replicate data, read-out: MESO1 viability (%)): 86.2%
- viability at 72 h, 0.00038147 uM ([3]; MESO-1 malignant pleural mesothelioma cells, conc 0.00038147 uM, raw replicate data, read-out: MESO1 viability (%)): 94.8%
- viability at 72 h, 0.000762939 uM ([3]; MESO-1 malignant pleural mesothelioma cells, conc 0.000762939 uM, raw replicate data, read-out: MESO1 viability (%)): 80.3%
- viability at 72 h, 0.00152588 uM ([3]; MESO-1 malignant pleural mesothelioma cells, conc 0.00152588 uM, raw replicate data, read-out: MESO1 viability (%)): 82.2%
- viability at 72 h, 0.00305176 uM ([3]; MESO-1 malignant pleural mesothelioma cells, conc 0.00305176 uM, raw replicate data, read-out: MESO1 viability (%)): 74.9%
- viability at 72 h, 0.00610352 uM ([3]; MESO-1 malignant pleural mesothelioma cells, conc 0.00610352 uM, raw replicate data, read-out: MESO1 viability (%)): 80.5%
- viability at 72 h, 0.012207 uM ([3]; MESO-1 malignant pleural mesothelioma cells, conc 0.012207 uM, raw replicate data, read-out: MESO1 viability (%)): 73.8%
- viability at 72 h, 0.0244141 uM ([3]; MESO-1 malignant pleural mesothelioma cells, conc 0.0244141 uM, raw replicate data, read-out: MESO1 viability (%)): 74.4%
- viability at 72 h, 0.0488281 uM ([3]; MESO-1 malignant pleural mesothelioma cells, conc 0.0488281 uM, raw replicate data, read-out: MESO1 viability (%)): 72.5%
- viability at 72 h, 0.0976562 uM ([3]; MESO-1 malignant pleural mesothelioma cells, conc 0.0976562 uM, raw replicate data, read-out: MESO1 viability (%)): 78.4%
- viability at 72 h, 0.195312 uM ([3]; MESO-1 malignant pleural mesothelioma cells, conc 0.195312 uM, raw replicate data, read-out: MESO1 viability (%)): 68.5%
- viability at 72 h, 0.390625 uM ([3]; MESO-1 malignant pleural mesothelioma cells, conc 0.390625 uM, raw replicate data, read-out: MESO1 viability (%)): 78.4%
- viability at 72 h, 0.78125 uM ([3]; MESO-1 malignant pleural mesothelioma cells, conc 0.78125 uM, raw replicate data, read-out: MESO1 viability (%)): 66.1%
- viability at 72 h, 1.5625 uM ([3]; MESO-1 malignant pleural mesothelioma cells, conc 1.5625 uM, raw replicate data, read-out: MESO1 viability (%)): 73.1%
- viability at 72 h, 3.125 uM ([3]; MESO-1 malignant pleural mesothelioma cells, conc 3.125 uM, raw replicate data, read-out: MESO1 viability (%)): 67.9%
- viability at 72 h, 6.25 uM ([3]; MESO-1 malignant pleural mesothelioma cells, conc 6.25 uM, raw replicate data, read-out: MESO1 viability (%)): 67.3%
- viability at 72 h, 12.5 uM ([3]; MESO-1 malignant pleural mesothelioma cells, conc 12.5 uM, raw replicate data, read-out: MESO1 viability (%)): 59.2%
- viability at 72 h, 25 uM ([3]; MESO-1 malignant pleural mesothelioma cells, conc 25 uM, raw replicate data, read-out: MESO1 viability (%)): 53.2%
- viability at 72 h, 50 uM ([3]; MESO-1 malignant pleural mesothelioma cells, conc 50 uM, raw replicate data, read-out: MESO1 viability (%)): 31.7%
